Patent US8829193B2, “PIM kinase inhibitors and methods of their use” (Novartis AG, priority 2008, dated 2014)

Assays:
Format in all cases: biochemical
[1] = molecular target: Pim2 kinase (Homo sapiens (Human), UniProt Q9P1W9); assay: Pim2 ATP depletion assay; conditions: 4 μM ATP, 10 μM BAD peptide, 5 nM PIM2
Procedure: (§1) The activity of PIM2 is measured using a luciferase-luciferin based ATP detection reagent to quantify ATP depletion resulting from kinase-catalyzed phosphoryl transfer to a peptide substrate. Compounds to be tested are dissolved in 100% DMSO and directly distributed into white 384-well plates at 0.5 piper well. […] After 15 minutes, 10 μl of 8 μM ATP in assay buffer is added. Final assay concentrations are 5 nM PIM2, 4 μM ATP, 10 μM BAD peptide and 2.5% DMSO. The reaction is performed until approximately 50% of the ATP is depleted, then stopped with the addition of 20 μl KinaseGlo Plus (Promega Corporation) solution. The stopped reaction is incubated for 10 minutes and the remaining ATP detected via luminescence on the Victor2 (Perkin Elmer).

[2] = molecular target: Pim3 kinase (Homo sapiens (Human), UniProt Q86V86); assay: Pim3 ATP depletion assay; conditions: 40 μM ATP, 100 μM BAD peptide
Procedure: as §1, with “of PIM3” for “of PIM2”, “of 80” for “of 8”, “nM PIM1, 40” for “nM PIM2, 4”, “ATP, 100” for “ATP, 10”, “stopped by” for “stopped with”

[3] = molecular target: Pim1 kinase (Homo sapiens (Human), UniProt P11309); assay: Pim1 ATP depletion assay; conditions: 20 μM ATP, 40 μM BAD peptide, 2.5 nM PIM1
Chain of Pim1 kinase (P11309 whole entry): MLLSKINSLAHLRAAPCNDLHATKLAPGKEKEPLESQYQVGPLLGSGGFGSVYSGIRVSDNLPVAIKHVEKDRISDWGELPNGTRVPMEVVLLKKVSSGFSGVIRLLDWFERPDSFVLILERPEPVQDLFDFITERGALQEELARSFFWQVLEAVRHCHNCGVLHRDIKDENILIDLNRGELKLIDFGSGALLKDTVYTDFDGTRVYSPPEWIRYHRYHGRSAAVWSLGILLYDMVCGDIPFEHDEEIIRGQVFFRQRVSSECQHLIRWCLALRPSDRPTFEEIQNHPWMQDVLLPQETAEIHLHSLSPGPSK
Procedure: as §1, with “of PIM1” for “of PIM2”, “0.5 μl per” for “0.5 piper”, “of 40” for “of 8”, “are 2.5” for “are 5”, “nM PIM1, 20” for “nM PIM2, 4”, “ATP, 40” for “ATP, 10”

Chain of Pim2 kinase (Q9P1W9 whole entry): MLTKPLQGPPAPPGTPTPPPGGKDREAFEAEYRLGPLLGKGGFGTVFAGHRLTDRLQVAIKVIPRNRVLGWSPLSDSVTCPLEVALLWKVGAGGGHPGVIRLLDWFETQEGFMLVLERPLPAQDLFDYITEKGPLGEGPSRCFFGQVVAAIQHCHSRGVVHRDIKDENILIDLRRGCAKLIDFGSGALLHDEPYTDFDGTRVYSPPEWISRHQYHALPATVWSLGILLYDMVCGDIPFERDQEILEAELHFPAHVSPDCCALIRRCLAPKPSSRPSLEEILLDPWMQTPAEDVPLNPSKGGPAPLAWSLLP

SMILES | IC50 [1] | IC50 [2] | IC50 [3]
C[C@H]1C[C@@H](c2ccncc2NC(=O)c2csc(-c3c(F)cccc3F)n2)C[C@@H](N)[C@H]1F (racemic) [Example 58, N-(4-((+/−)-3-amino-4-fluoro-5-methylcyclohexyl)pyridin-3-yl)-2-(2,6-difluorophenyl)thiazole-4-carboxamide] | 47 nM | 18 nM | 
N[C@@H]1CN(c2ccncc2NC(=O)c2csc(-c3c(F)cccc3F)n2)CC[C@H]1F [Example 3, N-(4-((3R,4R)-3-amino-4-fluoropiperidin-1-yl)pyridin-3-yl)-2-(2,6-difluorophenyl)thiazole-4-carboxamide] | 23 nM | 5 nM | 2 nM
N[C@H]1C[C@@H](O)CN(c2ccncc2NC(=O)c2csc(-c3c(F)cccc3F)n2)C1 [Example 5, N-(4-((3S,5R)-3-amino-5-hydroxypiperidin-1-yl)pyridin-3-yl)-2-(2,6-difluorophenyl)thiazole-4-carboxamide] | 77 nM | 13 nM | 15 nM
COC1CCN(c2ccncc2NC(=O)c2csc(-c3c(F)cccc3F)n2)CC1N (centres unmarked) [Example 7, N-(4-(3-amino-4-methoxypiperidin-1-yl)pyridin-3-yl)-2-(2,6-difluorophenyl)thiazole-4-carboxamide] | 243 nM | 18 nM | 5 nM
N[C@H]1C[C@H](O)CN(c2ccncc2NC(=O)c2csc(-c3c(F)cccc3F)n2)C1 [Example 9, N-(4-((3S,5S)-3-amino-5-hyydroxypiperidin-1-yl)pyridin-3-yl)-2-(2,6-difluorophenyl)thiazole-4-carboxamide] | 1500 nM | 91 nM | 69 nM
N[C@H]1C[C@H](OC(=O)c2ccccc2)CN(c2ccncc2NC(=O)c2csc(-c3c(F)cccc3F)n2)C1 [Example 10, (3S,5S)-5-amino-1-(3-(2-(2,6-difluorophenyl)thiazole-4-carboxamido)pyridin-4-yl)piperidin-3-yl benzoate] | 479 nM | 322 nM | 2220 nM
N[C@H]1CCCN(c2ccncc2NC(=O)c2csc(C3CCCCC3)n2)C1 [Example 12, (S)-N-(4-(3-aminopiperidin-1-yl)pyridin-3-yl)-2-cyclohexylthiazole-4-carboxamide] | 208 nM | 45 nM | 57 nM
NC1CC(CO)CN(c2ccncc2NC(=O)c2csc(-c3c(F)cccc3F)n2)C1 (centres unmarked) [Example 13, N-(4-(3-amino-5-(hydroxymethyl)piperidin-1-yl)pyridin-3-yl)-2-(2,6-difluorophenyl)thiazole-4-carboxamide] | 58 nM | 24 nM | 14 nM
N[C@H]1C[C@H](F)CN(c2ccncc2NC(=O)c2csc(-c3c(F)cccc3F)n2)C1 [Example 17, N-(4-((3S,5S)-3-amino-5-fluoropiperidin-1-yl)pyridin-3-yl)-2-(2,6-difluorophenyl)thiazole-4-carboxamide] | 70 nM | 8 nM | 4 nM
NC1CN(c2ccncc2NC(=O)c2csc(-c3c(F)cccc3F)n2)CCC1Cl (centres unmarked) [Example 18, N-(4-(3-amino-4-chloropiperidin-1-yl)pyridin-3-yl)-2-(2,6-difluorophenyl)thiazole-4-carboxamide] | 54 nM | 12 nM | 5 nM
NC1CC(C(F)(F)F)CN(c2ccncc2NC(=O)c2csc(C3CCCCC3)n2)C1 (centres unmarked) [Example 21, N-(4-(3-amino-5-(trifluoromethyl)piperidin-1-yl)pyridin-3-yl)-2-cyclohexylthiazole-4-carboxamide] | 21 nM | 20 nM | 11 nM
CO[C@H]1C[C@H](N)CN(c2ccncc2NC(=O)c2csc(-c3c(F)cccc3F)n2)C1 [Example 22, N-(4-((3S,5S)-3-amino-5-methoxypiperidin-1-yl)pyridin-3-yl)-2-(2,6-difluorophenyl)thiazole-4-carboxamide] | 378 nM | 60 nM | 129 nM
N[C@@H]1CN(c2ccncc2NC(=O)c2csc(-c3c(F)cccc3F)n2)CC(F)(F)C1 [Example 24, (S)-N-(4-(5-amino-3,3-difluoropiperidin-1-yl)pyridin-3-yl)-2-(2,6-difluoropheenyl)thiazole-4-carboxamide] | 38 nM | 4 nM | 2 nM
N[C@@H]1C[C@@H](C(F)(F)F)CN(c2ccncc2NC(=O)c2csc(-c3c(F)cccc3F)n2)C1 [Example 26, N-(4-((3R,5R)-3-amino-5-(trifluoromethyl)piperidin-1-yl)pyridin-3-yl)-2-(2,6-difluorophenyl)thiazole-4-carboxamide] | 72 nM | 24 nM | 6 nM
Nc1sc(-c2c(F)cccc2F)nc1C(=O)Nc1cnccc1N1CCC(F)CC1 [Example 30, 5-amino-2-(2,6-difluorophenyl)-N-(4-(4-fluoropiperidin-1-yl)pyridin-3-yl)thiazole-4-carboxamide] | 55 nM | 3 nM | 1 nM
C[C@@H]1C[C@H](O)C[C@H](c2ccncc2NC(=O)c2csc(-c3c(F)cccc3F)n2)C1 [Example 31, 2-(2,6-difluorophenyl)-N-(4-((1R,3S,5S)-3-hydroxy-5-methylcyclohexyl)pyridin-3-yl)thiazole-4-carboxamide] | 90 nM | 8 nM | 2 nM

These reach a lower IC50 [1]. Values come first.

IC50 [1] | IC50 [2] | IC50 [3] | SMILES
18 nM | 16 nM | 12 nM | CC1CC(N)CN(c2ccncc2NC(=O)c2csc(C3CCCCC3)n2)C1 (centres unmarked) [Example 20, N-(4-(3-amino-5-methylpiperidin-1-yl)pyridin-3-yl)-2-cyclohexylthiazole-4-carboxamide]
15 nM | 5 nM | 3 nM | C[C@@H]1C[C@H](N)C[C@H](c2ccncc2NC(=O)c2csc(-c3c(F)ccc(F)c3F)n2)C1 (stereo in doubt) [Example 55, 2-(2,3,6-Trifluoro-phenyl)-thiazole-4-carboxylic acid [4-(3-amino-5-methyl-cyclohexyl)-pyridin-3-yl]-amide]
12 nM | 3 nM | 1 nM | C[C@@H]1C[C@H](N)C[C@H](c2ccncc2NC(=O)c2csc(-c3c(F)ccc(Cl)c3F)n2)C1 (stereo in doubt) [Example 56, 2-(3-Chloro-2,6-difluoro-phenyl)-thiazole-4-carboxylic acid [4-(3-amino-5-methyl-cyclohexyl)-pyridin-3-yl]-amide]
9 nM | 3 nM | 1 nM | CCOc1ccc(F)c(-c2nc(C(=O)Nc3cnccc3[C@@H]3C[C@H](C)C[C@H](N)C3)cs2)c1F (stereo in doubt) [Example 54, 2-(3-Ethoxy-2,6-difluoro-phenyl)-thiazole-4-carboxylic acid [4-(3-amino-5-methyl-cyclohexyl)-pyridin-3-yl]-amide]
5 nM | 4 nM | 1 nM | C[C@@H]1C[C@H](O)C[C@H](c2ccncc2NC(=O)c2nc(-c3c(F)cccc3F)sc2N)C1 [Example 32, 5-amino-2-(2,6-difluorophenyl)-N-(4-((1R,3S,5S)-3-hydroxy-5-methylcyclohexyl)pyridin-3-yl)thiazole-4-carboxamide]
4 nM | 2 nM | 1 nM | COc1ccc(F)c(-c2nc(C(=O)Nc3cnccc3[C@@H]3C[C@H](C)C[C@H](N)C3)cs2)c1F (stereo in doubt) [Example 52, 2-(2,6-Difluoro-3-methoxy-phenyl)-thiazole-4-carboxylic acid [4-(3-amino-5-methyl-cyclohexyl)-pyridin-3-yl]-amide]
4 nM | 2 nM | 1 nM | C[C@@H]1C[C@H](N)C[C@H](c2ccncc2NC(=O)c2csc(-c3c(F)cc(O)cc3F)n2)C1 (stereo in doubt) [Example 57, 2-(2,6-Difluoro-4-hydroxy-phenyl)-thiazole-4-carboxylic acid [4-(3-amino-5-methyl-cyclohexyl)-pyridin-3-yl]-amide]
3 nM | 3 nM | 1 nM | CC[C@@H]1C[C@H](N)CN(c2ccncc2NC(=O)c2csc(-c3c(F)cccc3F)n2)C1 [Example 25, N-(4-((3S,5R)-3-amino-5-ethylpiperidin-1-yl)pyridin-3-yl)-2-(2,6-difluorophenyl)thiazole-4-carboxamide]
